According to patent US20090104335A1, “Healthy Food Product” (priority 2006, published 2009):

test: Effect of peptides on incorporation of cholesterol (NBD-cholesterol) into mixed micelles; settings: Table 3, effect of charge; peptides 1 mg/ml; BA-mix in PBS pH 6.5; micelles without peptide = 100%
Description: To form mixed micelles in vitro, 0.1 mM lecithin, 0.05 mM monoolein, 0.1 mM oleic acid and 80 μM cholesterol are mixed in a test tube and dried under a stream of N2. After drying, a 2 mM bile acid mix (BA-mix) in PBS pH 6.5 is added to this lipid mixture. Fluorescent labelled cholesterol (NBD-cholesterol) is used to monitor the incorporation of cholesterol into the mixed micelles.
For testing, peptides (1 mg/ml) are added to the BA-mix and then mixed with lipid-mixtures as described. The whole mixture is vortexed for 15 seconds, followed by an ultrasonic treatment in a waterbath for 30 minutes. From this mixture a sample is taken to measure total NBD-cholesterol concentration. The remaining micelle solution is centrifuged in a table-top ultracentrifuge at 50.000 g for 30 minutes at room temperature.
After centrifugation, samples from the supernatant are taken for the determination of solubilized NBD-cholesterol, which indicates the amount of cholesterol incorporated into mixed micelles. The pellet containing crystallised cholesterol is discarded. NBD-cholesterol is measured at 375/465 nm using a fluorescence plate reader.
Mixed micelle mixtures containing no peptides are used as control (100%). For each example the percentage of incorporated Cholesterol is calculated by dividing the amount of incorporated cholesterol for the tested composition by the amount of incorporated cholesterol in the control sample.

Row | Substance | Incorporated CH (% control = 80 μM cholesterol) [% control]
1 | DDDDDD [reference compound] | 136.8
2 | EAEWEY [reference compound] | 81.3
3 | KKKKKK | 19.9
4 | RARWRY | 19.3
5 | RRRRRR | 14.8
6 | VEWEME [reference compound] | 68.4
7 | VRWRMR | 26.2

same assay, conditions: Table 4, effect of length; peptides 1 mg/ml; BA-mix in PBS pH 6.5; micelles without peptide = 100%

Row | Substance | Incorporated CH (% control = 80 μM cholesterol) [% control]
8 | RRRR | 32.8
9 | RRRRRR | 10.3
10 | RRRRRRRR [octa-peptide RRRRRRRR, net charge +8] | 8.8
